Source: the kinase profiling compilation of Christmann-Franck et al. (2016)

Key:
Assay in all cases: radiometric filter-binding kinase assay
PLK1 (human) = PLK1 (human) (UniProt P53350)
MAPK9 (human) = MAPK9 (human) (UniProt P45984)
[1] = biological target: PRKAA1 PRKAB2 PRKAG1 (human) (UniProt O43741+Q13131+P54619)
PRKCA (human) = PRKCA (human) (UniProt P17252)
RPS6KA3 KD1 KD2 (human) = RPS6KA3 KD1 KD2 (human) (UniProt P51812)
DYRK1A (human) = DYRK1A (human) (UniProt Q13627); conditions: compound 1.0 µM
MAP2K6 (human) = MAP2K6 (human) (UniProt P52564)
MELK (human) = MELK (human) (UniProt Q14680)
PRKCG (human) = PRKCG (human) (UniProt P05129)
CSNK1D (human) = CSNK1D (human) (UniProt P48730)
PDGFRA (human) = PDGFRA (human) (UniProt P16234)
MKNK1 (human) = MKNK1 (human) (UniProt Q9BUB5)
CHEK1 (human) = CHEK1 (human) (UniProt O14757)
MAP2K2 (human) = MAP2K2 (human) (UniProt P36507)
MARK1 (human) = MARK1 (human) (UniProt Q9P0L2)
MAP3K11 (human) = MAP3K11 (human) (UniProt Q16584)
INSRR (human) = INSRR (human) (UniProt P14616)
DDR2 (human) = DDR2 (human) (UniProt Q16832)
HIPK1 (human) = HIPK1 (human) (UniProt Q86Z02)
Sequence of HIPK1 (human) (Q86Z02 whole entry, looked up): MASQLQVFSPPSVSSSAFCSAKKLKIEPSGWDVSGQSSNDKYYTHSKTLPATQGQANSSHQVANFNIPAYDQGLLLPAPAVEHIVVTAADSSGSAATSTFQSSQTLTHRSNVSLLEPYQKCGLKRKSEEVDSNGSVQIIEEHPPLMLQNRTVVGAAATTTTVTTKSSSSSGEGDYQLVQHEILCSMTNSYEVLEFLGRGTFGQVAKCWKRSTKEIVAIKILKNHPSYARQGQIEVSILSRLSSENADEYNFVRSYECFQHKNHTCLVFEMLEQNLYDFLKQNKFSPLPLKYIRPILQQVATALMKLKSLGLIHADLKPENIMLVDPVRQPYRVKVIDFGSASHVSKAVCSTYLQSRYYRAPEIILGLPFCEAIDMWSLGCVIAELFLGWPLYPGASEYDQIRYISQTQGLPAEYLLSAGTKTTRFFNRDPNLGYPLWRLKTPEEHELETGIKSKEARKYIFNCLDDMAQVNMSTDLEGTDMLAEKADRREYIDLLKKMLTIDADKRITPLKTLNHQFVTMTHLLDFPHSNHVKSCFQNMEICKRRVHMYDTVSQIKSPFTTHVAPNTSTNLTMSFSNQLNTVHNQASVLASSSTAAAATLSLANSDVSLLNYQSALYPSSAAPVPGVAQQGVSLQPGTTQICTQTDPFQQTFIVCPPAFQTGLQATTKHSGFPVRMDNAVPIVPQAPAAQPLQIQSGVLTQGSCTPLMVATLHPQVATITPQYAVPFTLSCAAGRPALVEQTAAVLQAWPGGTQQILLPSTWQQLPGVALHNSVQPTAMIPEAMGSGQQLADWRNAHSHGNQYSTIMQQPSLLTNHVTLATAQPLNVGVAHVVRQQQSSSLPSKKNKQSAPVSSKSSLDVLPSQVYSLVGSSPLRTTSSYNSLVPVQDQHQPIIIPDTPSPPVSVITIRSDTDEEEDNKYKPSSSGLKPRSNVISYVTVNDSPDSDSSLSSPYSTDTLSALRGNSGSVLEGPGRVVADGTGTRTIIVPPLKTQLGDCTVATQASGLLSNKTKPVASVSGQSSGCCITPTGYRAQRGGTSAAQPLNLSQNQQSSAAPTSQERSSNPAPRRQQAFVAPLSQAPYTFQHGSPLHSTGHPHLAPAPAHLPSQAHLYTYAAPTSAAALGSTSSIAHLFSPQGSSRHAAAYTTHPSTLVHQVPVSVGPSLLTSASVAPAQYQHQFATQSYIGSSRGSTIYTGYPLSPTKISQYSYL

NUAK1 (human) = NUAK1 (human) (UniProt O60285)
YES1 (human) = YES1 (human) (UniProt P07947); conditions: compound 10.0 µM
PIM2 (human) = PIM2 (human) (UniProt Q9P1W9)
Sequence of PIM2 (human) (Q9P1W9 whole entry, looked up): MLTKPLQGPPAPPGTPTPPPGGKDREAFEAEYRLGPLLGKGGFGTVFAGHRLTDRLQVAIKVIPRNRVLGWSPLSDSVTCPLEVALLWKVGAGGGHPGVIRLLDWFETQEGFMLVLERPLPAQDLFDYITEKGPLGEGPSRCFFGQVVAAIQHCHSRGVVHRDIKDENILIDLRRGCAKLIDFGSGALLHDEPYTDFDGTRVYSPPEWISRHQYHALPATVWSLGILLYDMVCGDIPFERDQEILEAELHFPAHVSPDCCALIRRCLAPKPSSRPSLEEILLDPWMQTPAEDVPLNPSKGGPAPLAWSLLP

SIK3 (human) = SIK3 (human) (UniProt Q9Y2K2)
STK3 (human) = STK3 (human) (UniProt Q13188)
GCK (human) = GCK (human) (UniProt Q12851)
STK33 (human) = STK33 (human) (UniProt Q9BYT3)
Sequence of STK33 (human) (Q9BYT3 whole entry, looked up): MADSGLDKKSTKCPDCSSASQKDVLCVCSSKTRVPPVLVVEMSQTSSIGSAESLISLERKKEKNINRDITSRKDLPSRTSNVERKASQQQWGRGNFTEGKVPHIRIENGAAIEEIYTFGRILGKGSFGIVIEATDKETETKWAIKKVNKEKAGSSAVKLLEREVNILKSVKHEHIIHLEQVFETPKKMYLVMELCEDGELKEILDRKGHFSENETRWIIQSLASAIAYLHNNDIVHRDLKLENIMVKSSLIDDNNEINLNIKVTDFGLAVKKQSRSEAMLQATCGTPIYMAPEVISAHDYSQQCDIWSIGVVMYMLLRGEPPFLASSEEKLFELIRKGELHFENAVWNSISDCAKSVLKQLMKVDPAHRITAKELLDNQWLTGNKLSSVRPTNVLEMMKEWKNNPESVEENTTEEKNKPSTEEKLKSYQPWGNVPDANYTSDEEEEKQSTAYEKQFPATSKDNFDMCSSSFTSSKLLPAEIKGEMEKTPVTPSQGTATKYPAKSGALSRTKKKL

MKNK2 (human) = MKNK2 (human) (UniProt Q9HBH9)
Sequence of MKNK2 (human) (Q9HBH9 whole entry, looked up): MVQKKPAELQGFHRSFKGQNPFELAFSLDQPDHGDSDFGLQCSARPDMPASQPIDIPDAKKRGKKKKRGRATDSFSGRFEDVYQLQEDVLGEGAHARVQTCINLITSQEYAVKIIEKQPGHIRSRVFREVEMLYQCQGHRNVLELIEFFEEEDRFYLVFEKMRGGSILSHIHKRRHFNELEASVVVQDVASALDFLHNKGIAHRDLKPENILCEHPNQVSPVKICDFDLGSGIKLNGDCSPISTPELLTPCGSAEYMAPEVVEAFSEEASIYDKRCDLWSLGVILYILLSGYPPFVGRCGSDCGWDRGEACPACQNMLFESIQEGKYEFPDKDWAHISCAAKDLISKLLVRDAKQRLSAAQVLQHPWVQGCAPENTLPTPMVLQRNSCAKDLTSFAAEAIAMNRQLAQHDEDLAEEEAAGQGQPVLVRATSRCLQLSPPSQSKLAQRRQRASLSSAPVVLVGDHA

STK24 (human) = STK24 (human) (UniProt Q9Y6E0); conditions: compound 1.0 µM
MAPKAPK2 (human) = MAPKAPK2 (human) (UniProt P49137)
AURKA (human) = AURKA (human) (UniProt O14965)
EIF2AK3 (human) = EIF2AK3 (human) (UniProt Q9NZJ5)
INSR (human) = INSR (human) (UniProt P06213)
Sequence of INSR (human) (P06213 whole entry, looked up): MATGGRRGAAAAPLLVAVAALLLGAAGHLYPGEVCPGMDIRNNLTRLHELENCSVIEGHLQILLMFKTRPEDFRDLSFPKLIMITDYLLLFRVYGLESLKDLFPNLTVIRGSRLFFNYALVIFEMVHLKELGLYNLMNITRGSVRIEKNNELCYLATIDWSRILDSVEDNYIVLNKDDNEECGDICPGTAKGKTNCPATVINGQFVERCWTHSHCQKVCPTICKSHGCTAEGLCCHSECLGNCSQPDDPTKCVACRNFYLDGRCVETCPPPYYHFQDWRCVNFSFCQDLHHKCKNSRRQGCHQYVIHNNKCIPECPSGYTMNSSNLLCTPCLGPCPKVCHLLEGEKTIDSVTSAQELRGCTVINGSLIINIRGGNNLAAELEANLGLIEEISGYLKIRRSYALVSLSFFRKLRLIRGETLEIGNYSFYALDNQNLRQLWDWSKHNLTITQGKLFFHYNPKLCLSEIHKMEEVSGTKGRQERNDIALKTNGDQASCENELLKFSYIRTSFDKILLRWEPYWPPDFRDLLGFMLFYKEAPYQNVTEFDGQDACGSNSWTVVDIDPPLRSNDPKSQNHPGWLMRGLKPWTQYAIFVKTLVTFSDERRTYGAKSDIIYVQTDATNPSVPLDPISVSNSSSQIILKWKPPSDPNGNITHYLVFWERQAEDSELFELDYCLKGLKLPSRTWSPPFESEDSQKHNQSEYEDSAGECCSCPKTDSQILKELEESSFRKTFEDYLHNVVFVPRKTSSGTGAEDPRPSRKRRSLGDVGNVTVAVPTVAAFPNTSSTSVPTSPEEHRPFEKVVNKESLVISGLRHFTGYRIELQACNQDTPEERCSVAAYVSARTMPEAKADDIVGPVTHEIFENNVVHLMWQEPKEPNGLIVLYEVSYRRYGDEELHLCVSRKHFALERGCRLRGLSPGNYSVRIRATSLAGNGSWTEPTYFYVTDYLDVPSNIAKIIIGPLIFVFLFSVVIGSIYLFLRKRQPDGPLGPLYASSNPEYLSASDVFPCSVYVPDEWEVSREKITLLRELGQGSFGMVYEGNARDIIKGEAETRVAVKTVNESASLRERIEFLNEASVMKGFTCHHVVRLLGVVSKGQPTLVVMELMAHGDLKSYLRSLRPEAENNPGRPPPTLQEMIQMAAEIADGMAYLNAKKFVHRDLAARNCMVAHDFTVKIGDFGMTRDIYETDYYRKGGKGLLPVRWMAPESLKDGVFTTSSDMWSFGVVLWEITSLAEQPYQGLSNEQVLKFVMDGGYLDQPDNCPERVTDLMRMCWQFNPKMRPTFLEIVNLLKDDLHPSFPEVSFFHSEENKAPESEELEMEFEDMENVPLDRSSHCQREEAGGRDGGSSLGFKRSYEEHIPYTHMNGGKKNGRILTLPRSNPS

Sequence of PRKAA1 PRKAB2 PRKAG1 (human) (O43741 whole entry, looked up): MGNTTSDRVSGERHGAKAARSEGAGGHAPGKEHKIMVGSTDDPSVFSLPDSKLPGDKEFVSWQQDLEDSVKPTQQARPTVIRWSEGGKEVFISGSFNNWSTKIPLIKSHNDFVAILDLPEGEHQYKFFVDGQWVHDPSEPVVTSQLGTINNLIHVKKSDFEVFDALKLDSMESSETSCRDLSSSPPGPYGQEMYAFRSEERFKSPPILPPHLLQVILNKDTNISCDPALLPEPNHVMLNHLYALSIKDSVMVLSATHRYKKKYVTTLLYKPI
Sequence of PRKAA1 PRKAB2 PRKAG1 (human) (P54619 whole entry, looked up): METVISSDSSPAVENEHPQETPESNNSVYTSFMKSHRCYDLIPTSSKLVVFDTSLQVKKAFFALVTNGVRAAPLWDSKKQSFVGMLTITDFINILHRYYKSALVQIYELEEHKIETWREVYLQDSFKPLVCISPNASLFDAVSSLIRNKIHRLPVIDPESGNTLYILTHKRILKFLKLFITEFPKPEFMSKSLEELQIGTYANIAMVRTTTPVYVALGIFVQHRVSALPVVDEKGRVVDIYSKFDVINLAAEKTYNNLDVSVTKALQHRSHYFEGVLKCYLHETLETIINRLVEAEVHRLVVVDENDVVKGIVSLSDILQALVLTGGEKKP
Sequence of PRKAA1 PRKAB2 PRKAG1 (human) (Q13131 whole entry, looked up): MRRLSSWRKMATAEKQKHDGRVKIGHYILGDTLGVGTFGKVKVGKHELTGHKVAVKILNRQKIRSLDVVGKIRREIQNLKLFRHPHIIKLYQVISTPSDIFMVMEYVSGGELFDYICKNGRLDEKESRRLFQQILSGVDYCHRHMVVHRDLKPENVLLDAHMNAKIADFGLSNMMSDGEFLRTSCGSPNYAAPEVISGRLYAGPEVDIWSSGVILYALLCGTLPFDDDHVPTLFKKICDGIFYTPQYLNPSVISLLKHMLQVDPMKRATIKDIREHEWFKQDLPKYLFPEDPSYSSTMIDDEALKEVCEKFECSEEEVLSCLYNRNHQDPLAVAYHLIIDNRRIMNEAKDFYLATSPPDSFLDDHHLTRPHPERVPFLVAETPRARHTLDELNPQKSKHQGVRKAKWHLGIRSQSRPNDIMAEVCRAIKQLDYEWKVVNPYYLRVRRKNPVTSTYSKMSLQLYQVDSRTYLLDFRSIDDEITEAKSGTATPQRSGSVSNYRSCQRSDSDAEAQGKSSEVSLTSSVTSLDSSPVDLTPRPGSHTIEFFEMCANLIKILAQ

CNc1nc(Nc2ccc(C(=O)N3CCOCC3)cc2OC)ncc1Cl
residual activity (PLK1 (human); compound 1.0 µM): 97%
residual activity (PLK1 (human); compound 10.0 µM): 105%
residual activity (MAPK9 (human); compound 1.0 µM): 76%
residual activity (MAPK9 (human); compound 10.0 µM): 46%
residual activity ([1]; compound 1.0 µM): 91%
residual activity ([1]; compound 10.0 µM): 71%
residual activity (PRKCA (human); compound 1.0 µM): 66%
residual activity (PRKCA (human); compound 10.0 µM): 87%
residual activity (RPS6KA3 KD1 KD2 (human); compound 1.0 µM): 92%
residual activity (RPS6KA3 KD1 KD2 (human); compound 10.0 µM): 65%
residual activity (DYRK1A (human)): 79%
residual activity (MAP2K6 (human); compound 1.0 µM): 74%
residual activity (MAP2K6 (human); compound 10.0 µM): 65%
residual activity (MELK (human); compound 1.0 µM): 88%
residual activity (MELK (human); compound 10.0 µM): 98%
residual activity (PRKCG (human); compound 1.0 µM): 93%
residual activity (PRKCG (human); compound 10.0 µM): 108%
residual activity (CSNK1D (human); compound 1.0 µM): 44%
residual activity (CSNK1D (human); compound 10.0 µM): 89%
residual activity (PDGFRA (human); compound 1.0 µM): 79%
residual activity (PDGFRA (human); compound 10.0 µM): 56%
residual activity (MKNK1 (human); compound 1.0 µM): 71%
residual activity (MKNK1 (human); compound 10.0 µM): 44%
residual activity (CHEK1 (human); compound 1.0 µM): 65%
residual activity (CHEK1 (human); compound 10.0 µM): 45%
residual activity (MAP2K2 (human); compound 1.0 µM): 91%
residual activity (MAP2K2 (human); compound 10.0 µM): 86%
residual activity (MARK1 (human); compound 1.0 µM): 91%
residual activity (MARK1 (human); compound 10.0 µM): 84%
residual activity (MAP3K11 (human); compound 1.0 µM): 75%
residual activity (MAP3K11 (human); compound 10.0 µM): 43%
residual activity (INSRR (human); compound 1.0 µM): 126%
residual activity (INSRR (human); compound 10.0 µM): 97%
residual activity (DDR2 (human); compound 1.0 µM): 103%
residual activity (DDR2 (human); compound 10.0 µM): 90%
residual activity (HIPK1 (human); compound 1.0 µM): 77%
residual activity (HIPK1 (human); compound 10.0 µM): 94%
residual activity (NUAK1 (human); compound 1.0 µM): 43%
residual activity (NUAK1 (human); compound 10.0 µM): 20%
residual activity (YES1 (human)): 90%
residual activity (PIM2 (human); compound 1.0 µM): 94%
residual activity (PIM2 (human); compound 10.0 µM): 97%
residual activity (SIK3 (human); compound 1.0 µM): 93%
residual activity (SIK3 (human); compound 10.0 µM): 82%
residual activity (STK3 (human); compound 1.0 µM): 85%
residual activity (STK3 (human); compound 10.0 µM): 73%
residual activity (GCK (human); compound 1.0 µM): 108%
residual activity (GCK (human); compound 10.0 µM): 79%
residual activity (STK33 (human); compound 1.0 µM): 61%
residual activity (STK33 (human); compound 10.0 µM): 28%
residual activity (MKNK2 (human); compound 1.0 µM): 20%
residual activity (MKNK2 (human); compound 10.0 µM): 7%
residual activity (STK24 (human)): 83%
residual activity (MAPKAPK2 (human); compound 1.0 µM): 88%
residual activity (MAPKAPK2 (human); compound 10.0 µM): 102%
residual activity (AURKA (human); compound 1.0 µM): 56%
residual activity (AURKA (human); compound 10.0 µM): 45%
residual activity (EIF2AK3 (human); compound 1.0 µM): 99%
residual activity (EIF2AK3 (human); compound 10.0 µM): 97%
residual activity (INSR (human); compound 1.0 µM): 86%
residual activity (INSR (human); compound 10.0 µM): 50%
